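1) Cells in 96-well plates. 2) Compound, 48 h, 5 concentrations. 3) Linear interpolation between surrounding doses. 4) Unreached endpoint = highest concentration. At the GI50, growth is halved.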 Activity calls are given as the source filed them. Cut-off read from the data, not from the text of the source: active = GI50 up to about 1.1 µM and inactive = higher.
Legend:
Assay in all cases: NCI tumour cell line growth inhibition, 48 h
[1] = tested on: OVCAR-8
[2] = tested on: MOLT-4
[3] = tested on: COLO 205
[4] = tested on: MCF7
[5] = tested on: M14
[6] = tested on: SK-MEL-5
[7] = tested on: NCI-H226
[8] = tested on: BT-549
[9] = tested on: K562
[10] = tested on: RPMI-8226
[11] = tested on: IGROV-1
[12] = tested on: SR
[13] = tested on: HCT-116
[14] = tested on: CAKI-1
[15] = tested on: TK-10
[16] = tested on: A549
[17] = tested on: OVCAR-4
[18] = tested on: KM12
[19] = tested on: OVCAR-5
[20] = tested on: SK-MEL-28
[21] = tested on: NCI/ADR-RES
[22] = tested on: NCI-H460
[23] = tested on: MDA-MB-231
[24] = tested on: SW-620
[25] = tested on: SF-539
[26] = tested on: SK-MEL-2
[27] = tested on: ACHN
[28] = tested on: T47D
[29] = tested on: NCI-H522
[30] = tested on: Hs-578T
[31] = tested on: Malme-3M
[32] = tested on: SNB-19
[33] = tested on: OVCAR-3
[34] = tested on: UO-31
[35] = tested on: HT-29
[36] = tested on: SN12C
[37] = tested on: LOX IMVI
[38] = tested on: EKVX
[39] = tested on: DU-145
[40] = tested on: HOP-62
[41] = tested on: SK-OV-3
[42] = tested on: 786-0
[43] = tested on: PC-3
[44] = tested on: HCT-15
[45] = tested on: HOP-92
[46] = tested on: SF-295
[47] = tested on: U-251
[48] = tested on: SF-268
[49] = tested on: UACC-62
[50] = tested on: SNB-75
[51] = tested on: MDA-MB-435
[52] = tested on: CCRF-CEM
[53] = tested on: NCI-H23
[54] = tested on: UACC-257
[55] = tested on: A498
[56] = tested on: MDA-N
[57] = tested on: HCC 2998
[58] = tested on: HL-60
[59] = tested on: RXF 393

Nc1ccc2c(SCCSc3c4ccccc4nc4cc(N)ccc34)c3ccccc3nc2c1
GI50 [1]: > 100 µM (inactive) | GI50 [2]: 15.7 µM (inactive) | GI50 [3]: > 100 µM (inactive) | GI50 [4]: > 100 µM (inactive) | GI50 [5]: > 100 µM (inactive) | GI50 [6]: > 100 µM (inactive) | GI50 [7]: > 100 µM (inactive) | GI50 [8]: > 100 µM (inactive) | GI50 [9]: 38.6 µM (inactive) | GI50 [10]: > 100 µM (inactive) | GI50 [11]: > 100 µM (inactive) | GI50 [12]: 23 µM (inactive) | GI50 [13]: 57.4 µM (inactive) | GI50 [14]: > 100 µM (inactive) | GI50 [15]: > 100 µM (inactive) | GI50 [16]: > 100 µM (inactive) | GI50 [17]: > 100 µM (inactive) | GI50 [18]: > 100 µM (inactive) | GI50 [19]: > 100 µM (inactive) | GI50 [20]: > 100 µM (inactive) | GI50 [21]: > 100 µM (inactive) | GI50 [22]: > 100 µM (inactive) | GI50 [23]: > 100 µM (inactive) | GI50 [24]: > 100 µM (inactive) | GI50 [25]: > 100 µM (inactive) | GI50 [26]: > 100 µM (inactive) | GI50 [27]: 55.7 µM (inactive) | GI50 [28]: > 100 µM (inactive) | GI50 [29]: > 100 µM (inactive) | GI50 [30]: > 100 µM (inactive) | GI50 [31]: > 100 µM (inactive) | GI50 [32]: > 100 µM (inactive) | GI50 [33]: > 100 µM (inactive) | GI50 [34]: > 100 µM (inactive) | GI50 [35]: > 100 µM (inactive) | GI50 [36]: > 100 µM (inactive) | GI50 [37]: > 100 µM (inactive) | GI50 [38]: > 100 µM (inactive) | GI50 [39]: > 100 µM (inactive) | GI50 [40]: > 100 µM (inactive) | GI50 [41]: > 100 µM (inactive) | GI50 [42]: > 100 µM (inactive) | GI50 [43]: > 100 µM (inactive) | GI50 [44]: > 100 µM | GI50 [45]: > 100 µM (inactive) | GI50 [46]: > 100 µM (inactive) | GI50 [47]: 49.3 µM (inactive) | GI50 [48]: > 100 µM (inactive) | GI50 [49]: > 100 µM (inactive) | GI50 [50]: > 100 µM (inactive) | GI50 [51]: > 100 µM (inactive) | GI50 [52]: 38.5 µM (inactive) | GI50 [53]: 94.2 µM (inactive) | GI50 [54]: > 100 µM (inactive)

CCOC(=O)c1c(C)[nH]c2c1c(CN(C)C)c(O)c1nc(C)c(C)nc12
GI50 [55]: 15.2 µM (inactive) | GI50 [1]: 21.4 µM (inactive) | GI50 [2]: 16 µM (inactive) | GI50 [3]: 14.5 µM (inactive) | GI50 [4]: 17.9 µM (inactive) | GI50 [56]: 19.2 µM (inactive) | GI50 [5]: 36.1 µM (inactive) | GI50 [6]: 15 µM (inactive) | GI50 [7]: 22.2 µM (inactive) | GI50 [57]: 21.4 µM (inactive) | GI50 [8]: 26.2 µM (inactive) | GI50 [9]: 21.3 µM (inactive) | GI50 [10]: 18.5 µM (inactive) | GI50 [58]: 8.09 µM (inactive) | GI50 [11]: 24.2 µM (inactive) | GI50 [12]: 16.5 µM (inactive) | GI50 [13]: 17.2 µM (inactive) | GI50 [59]: 20.8 µM (inactive) | GI50 [14]: 28.4 µM (inactive) | GI50 [15]: 24.2 µM (inactive) | GI50 [16]: 22.4 µM (inactive) | GI50 [17]: 27.2 µM (inactive) | GI50 [18]: 28.2 µM (inactive) | GI50 [19]: 28.4 µM (inactive) | GI50 [20]: 25 µM (inactive) | GI50 [21]: 24.2 µM (inactive) | GI50 [22]: 18.4 µM (inactive) | GI50 [24]: 24.4 µM (inactive) | GI50 [25]: 18 µM (inactive) | GI50 [26]: 20.4 µM (inactive) | GI50 [27]: 20.5 µM (inactive) | GI50 [28]: 27 µM (inactive) | GI50 [29]: 16.3 µM (inactive) | GI50 [30]: 22.8 µM (inactive) | GI50 [31]: 18.5 µM (inactive) | GI50 [32]: 31.1 µM (inactive) | GI50 [33]: 26.5 µM (inactive) | GI50 [34]: 29.5 µM (inactive) | GI50 [35]: 21.6 µM (inactive) | GI50 [36]: 12.6 µM (inactive) | GI50 [37]: 19.4 µM (inactive) | GI50 [38]: 27.3 µM (inactive) | GI50 [39]: 26.2 µM (inactive) | GI50 [40]: 20 µM (inactive) | GI50 [41]: 32.3 µM (inactive) | GI50 [42]: 16.1 µM (inactive) | GI50 [43]: 19.5 µM (inactive) | GI50 [44]: 26.4 µM | GI50 [45]: 31.8 µM (inactive) | GI50 [46]: 20.2 µM (inactive) | GI50 [47]: 24.3 µM (inactive) | GI50 [48]: 27.3 µM (inactive) | GI50 [49]: 15.6 µM (inactive) | GI50 [50]: 23.3 µM (inactive) | GI50 [51]: 25.6 µM (inactive) | GI50 [52]: 10.8 µM (inactive) | GI50 [53]: 27.8 µM (inactive) | GI50 [54]: 23.5 µM (inactive)

From ChEMBL document CHEMBL1201862, “PubChem BioAssay data set” (2004)
